Results taken from patent US20230010299A1, “HETEROCYCLIC TRPML1 AGONISTS” (LIBRA THERAPEUTICS, INC., priority 2019, published 2023).
Where two headings read alike, the source gives them in different places.

Assays:
[1] = system: autophagy reporter Rosella (LC3 tag) in HeK293 cell line; assay: Autophagy assay (reporter Rosella, imaging); type: cell-based; conditions: HeK293 cells stably expressing reporter Rosella, 18 hours incubation, reference Torin-1 1 μM as max signal, read-out: Secondary Assays Autophagy qAC50
Experimental: Buffers and Reagents • Tyrode's buffer with 2 mM Ca^2+ in-house solution (130 mM NaCl, 5 mM KCl, 2 mM CaCl2), 1 mM MgCl2, 5 mM NaHCO3, 20 mM HEPES in water at pH 7.4; sterile filtered) • DMSO (Sigma) • Bis-benzimide H 33342 trihydrochloride (Hoechst 33342; Sigma-Aldrich) • Reference molecule (agonist): Torin-1, (#4247, Tocris) stock 1.2 mM in DMSO, stored at −20° C.
Reporter of Autophagy and Cell Line
Reporter Rosella: a fluorescent-based chimera constitutes by two fluorescent proteins, Green and Red variants, acting as a bimodal indicator of pH. […] The reporter is fused to sequence for autophagosome localization (LC3 tag).
The reporter Rosella have been stably expressed in HeK293 cell line and used as read-out.
Experiments have been performed in 384 MTP poly-lysine coated well format. Cells have been seeded in 384-w at a density of 6000 cells/well in 25 μl/well complete growth medium without antibiotics. Twenty-four hours later, cells have been treated with compounds and incubated for further 18 hours. Then the cells have been imaged and assayed for the response to various compounds using the reporter for autophagy expressed in the cells as readout.
The experiments were performed in a 384-well format according to the following procedure: • 24 h after seeding, cells were incubated with compounds at the desired concentration, and with the reference molecule (agonist) Torin-1 at a top concentration of 1 μM (max signal), for 18 hours at 37° C. and 5% CO2. The final percentage of DMSO was 0.3% in all the conditions. • Then the culture medium was carefully removed to avoid cells detachment and to discard red phenol into the medium and that can interfere with the measurements. • Staining of the nuclei was obtained by incubating the cells with 8 μM/well of Hoechst 3342 in standard Tyrode's buffer for 20 min at RT • Then the cells were carefully washed two times with standard Tyrode's buffer • Finally, the samples were acquired by recording three fluorescence emission channels (green, red and blue) at 20× magnification and with at least 3-4 fields of view per well in an Operetta CLS microscope (PerkinElmer). • Image analysis was performed by using Harmony software (PerkinElmer). The image analysis involved the following steps: flat-field illumination correction, nuclei segmentation, cell segmentations and identification of vesicles/granules within the cytosol compartments and representing the autophagy vesicles. Measurements of signal intensity ratio (Green to Red) and number of autophagy vesicles per cells were used to obtain information on the effects of compounds on the autophagy flux. • Data from image analysis measurements were finally loaded and analyzed for normalization and fitting procedures in Genedata Screener© software.

[2] = molecular target: T1, TRPML1 (Homo sapiens, UniProt Q9GZU1); assay: Cellular TRPML1 assay (FLIPR TETRA, GCaMP6f calcium read-out); type: cell-based; conditions: HEK T-REx/GCaMP6f/TRPML1 cells; Ca2+ response over 300 s, normalized to ML-SA1 50 μM; Ca2+ free or Optimem condition not given; read-out: Ec50 (Activity of TRPML1 agonists)
T1 construct: expressed in transfected cells
T1 sequence (Q9GZU1 whole entry): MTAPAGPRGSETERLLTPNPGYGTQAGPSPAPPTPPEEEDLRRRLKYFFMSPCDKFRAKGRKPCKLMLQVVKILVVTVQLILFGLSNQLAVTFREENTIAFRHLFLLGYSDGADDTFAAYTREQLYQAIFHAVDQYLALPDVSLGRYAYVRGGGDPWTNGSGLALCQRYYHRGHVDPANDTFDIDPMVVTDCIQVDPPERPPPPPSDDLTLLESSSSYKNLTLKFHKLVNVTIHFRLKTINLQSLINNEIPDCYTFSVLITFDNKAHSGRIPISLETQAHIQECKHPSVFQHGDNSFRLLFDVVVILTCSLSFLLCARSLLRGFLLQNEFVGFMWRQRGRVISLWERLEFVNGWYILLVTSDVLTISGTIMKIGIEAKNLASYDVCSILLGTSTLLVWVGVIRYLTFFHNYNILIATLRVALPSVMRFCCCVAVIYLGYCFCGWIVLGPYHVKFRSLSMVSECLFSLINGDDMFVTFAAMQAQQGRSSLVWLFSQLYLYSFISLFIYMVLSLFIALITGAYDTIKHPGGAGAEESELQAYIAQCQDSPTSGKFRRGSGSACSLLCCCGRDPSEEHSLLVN
In short: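 HEK T-REx cells stably expressing TRPML1 and GCaMP6f, assayed 24 h after seeding in Ca2+-free Tyrode's (pH 7.4) or Opti-MEM. Compounds injected on FLIPR Tetra (0.5% DMSO) in dose-response from 100 μM (1:2) or 50 μM (1:3.16); fluorescence kinetics 300 s, referenced to 50 μM ML-SA1 stimulator control.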

EC50 [2] [µM]	Compound	EC50 ([1]; Homo sapiens) [µM]	EC50 [1] [µM]
3.4	CCN(C(=O)c1ccc(S(=O)(=O)N(C)C)cc1)c1ccccc1N1CCN(C(=O)OC(C)(C)C)CC1 [Example 20, tert-butyl 4-(2-(4-(N,N-dimethylsulfamoyl)-N-ethylbenzamido)phenyl)piperazine-1-carboxylate]	0.46	–
9.4	CC(C)N(C(=O)c1ccc(S(=O)(=O)N(C)C)cc1)c1ccccc1N1CCN(C(=O)OC(C)(C)C)CC1 [Example 46, tert-butyl 4-(2-(4-(N,N-dimethylsulfamoyl)-N-isopropylbenzamido)phenyl)piperazine-1-carboxylate]	1.3	–
2.3	Cc1cc(S(=O)(=O)Nc2ccccc2N2CCN(C(=O)OC(C)(C)C)CC2)c(C)o1 [Example 58, tert-butyl 4-(2-((2,5-dimethylfuran)-3-sulfonamido)phenyl)piperazine-1-carboxylate]	22.4	–
7.3	CC(C)N(C(=O)c1ccc(S(C)(=O)=O)cc1)c1ccccc1N1CCN(C(=O)OC(C)(C)C)CC1 [Example 96, tert-butyl 4-(2-(N-isopropyl-4-(methylsulfonyl)benzamrdo)phenyl)piperazine-1-carboxylate]	–	11.2

The remaining lines, values behind:

Compound	EC50 [2] [µM]	EC50 ([1]; Homo sapiens) [µM]	EC50 [1] [µM]
COC1CCCN(c2ccccc2NS(=O)(=O)c2ccc(S(=O)(=O)N(C)C)cc2)CC1 (racemic) [Example 40, N1-(2-(4-methoxyazepan-1-yl)phenyl)-N4,N4-dimethylbenzene-1,4-disulfonamide]	3	1.3	–
CCc1ccc(S(=O)(=O)Nc2ccccc2N2CCC(C(=O)OC(C)(C)C)CC2)cc1 [Example 19, tert-butyl 1-(2-((4-ethylphenyl)sulfonamido)phenyl)piperidine-4-carboxylate]	2.1	0.6	–
CN(C)S(=O)(=O)c1ccc(S(=O)(=O)Nc2ccccc2N2CCC(F)(F)CC2)cc1 [Example 33, N4-[2-(4,4-difluoropiperidin-1-yl)phenyl]-N1,N1-dimethylbenzene-1,4-disulfonamide]	10.8	1.3	–
Cc1ccc(S(=O)(=O)Nc2ccccc2N2CCC(Oc3ccccn3)CC2)c(C)c1 [Example 65, 2,4-dimethyl-N-(2-(4-(pyridin-2-yloxy)piperidin-1-yl)phenyl)benzenesulfonamide]	3.5	31.4	–
CCCOC1CCN(c2ccccc2NS(=O)(=O)c2cc(C)sc2C)CC1 [Example 68, 2,5-dimethyl-N-(2-(4-propoxypiperidin-1-yl)phenyl)thiophene-3-sulfonamide]	4.6	15.3	–
Cc1nc(S(=O)(=O)Nc2ccccc2N2CCC(Oc3ccccn3)CC2)c(C)s1 [Example 99, 2,5-dimethyl-N-(2-(4-(pyridin-2-yloxy)piperidin-1-yl)phenyl)thiazole-4-sulfonamide]	5	6	–
